CCCCc1nc(Cl)c(CO)n1Cc1ccc(-c2ccccc2-c2nnn[n-]2)cc1.[K+]
solubility (mole fraction)
Settings	in cyclohexane	in ethanol	in ethyl acetate	in isopropanol	in methanol	in n-butyl acetate	in n-pentanol	in n-propanol
293.15 K	3.4e-05	0.0381	0.00251	0.0027	0.0277	0.00271	0.0446	0.026
303.15 K	2.87e-05	0.0473	0.00152	0.00279	0.0375	0.00238	0.0311	0.0272
313.15 K	3.05e-05	0.0547	0.00252	0.00413	0.0445	0.000968	0.0287	0.0299
323.15 K	2.72e-05	0.0702	0.00138	0.00547	0.0483	0.00121	0.0234	0.0376
333.15 K	2.88e-05	0.0739	0.00288	0.00696	0.0508	0.00193	0.0205	0.0452
343.15 K	2.59e-05	0.0785	0.00279	0.0117	0.0533	0.000907	0.0218	0.0499
